Source: patent publication US11596622B2, “Mazindol treatment for heroin dependence and substance use disorder” (NLS Pharmaceutics AG, priority 2017, dated 2023)

Columns and labels:
[1] = Pharmacokinetics of mazindol after oral administration; conditions: immediate release formulation
k (KOP) = target: T1, k (KOP) (Rattus norvegicus, UniProt P34975); assay: Radioligand binding, κ opioid receptor (Eurofins CEREP)
T1 construct: Eurofins CEREP
Excerpt: (§1) Table A discloses mazindol and Met tested at […] and the compound binding calculated as a percent inhibition of the binding of a radioactively labeled ligand specific for each target (Eurofins CEREP, France).
(§2) An inhibition or stimulation of more than 50% is considered a significant effect of the test compounds. Fifty percent is a common cut-off for further investigation (i.e. determination of IC50 or EC50 values from concentration-response curves). Tables B and C display the binding profiles for Mazindol and Met.
(§3) The results are expressed as a percent of control specific binding obtained in the presence of the test compounds:
(§4) [formula] and as a percent inhibition of control specific binding obtained in the presence of the test compounds: […]

Dopamine transporter(h) = target: T2, Dopamine transporter(h) (Homo sapiens, UniProt Q01959); assay: Radioligand binding, dopamine transporter (Eurofins CEREP); conditions: 1.0 × 10^−05 M; antagonist radioligand; read-out: percent inhibition of the binding of a radioactively labeled ligand
T2 construct: Eurofins CEREP
Excerpt: as §1
(§5) An inhibition or stimulation of more than 50% is considered a significant effect of the test compounds. Fifty percent is a common cut-off for further investigation (i.e. determination of IC50 or EC50 values from concentration-response curves).
as §3, §4

5-HT transporter(h) = target: T3, 5-HT transporter(h) (Homo sapiens, UniProt P31645); assay: Radioligand binding, 5-HT transporter (Eurofins CEREP); conditions: 1.0 × 10^−05 M; antagonist radioligand; read-out: percent inhibition of the binding of a radioactively labeled ligand
T3 construct: Eurofins CEREP
Excerpt: as §1, §5, §3, §4

C57BL/6J mice = assay: Conditioned place preference induced by the drug itself; format: in vivo
Excerpt: Conditioned place preference (CPP) is a widely used procedure for studying the potential addictive effect of drugs. CPP is based upon the tendency of rodents to approach a stimulus that has previously been paired with an incentive state induced by a drug. A drug that induces a CPP may be suspected to present reinforcing effects that could lead to addiction. Numerous addictive drugs, such as opiate agonists or stimulants induce a CPP and a behavioral sensitization.
The effect of mazindol on place preference was examined in C57BL/6J mice using a method similar to the one used by Schlussman et al. (9).
The second experiment consisted in determining the optimal dose of heroin which induces the most significant CPP. For this purpose, the CPP induced by heroin at 1.25, 2.5 and 5 mg/kg was examined.
(§6) Following the habituation session (on day 1), animals (N=72) were pseudo-randomly assigned to two groups, a Control group (N=12) and a Heroin group (N=60), in a way that there was no significant difference between the two groups for the total distance travelled in the apparatus and for the percentage of time spent and the percentage distance travelled in the grey compartment and in the striped compartment.
Animals received the following treatments immediately before drug sessions: • Control group: vehicle • Heroin group: heroin (1.25 mg/kg)
as §6, with “three” for “two”, “(N=12),” for “(N=12) and”, “(N=48) and a Mazindol group (N=12),” for “(N=60),”
Animals received the following treatments before drug sessions: • Control group: vehicle, i.p. immediately before session. • Heroin group: heroin (1.25 mg/kg), i.p. immediately before session. • MAZ 2 group: mazindol (2 mg/kg), i.p. 60 min before session.
Animals received the following treatments before preference session: • Control group: vehicle of mazindol, i.p. 60 min before testing. • Hero group: vehicle of mazindol, i.p. 60 min before testing. • Hero-Mz 1 group: mazindol (1 mg/kg), i.p. 60 min before testing. • Hero-Mz 2 group: mazindol (2 mg/kg), i.p. 60 min before testing. • Hero-A 1 group: D-amphetamine (1 mg/kg), i.p. 30 min before testing. • MAZ 2 group: vehicle of mazindol, i.p. 60 min before testing.

5-HT7(h) = target: T4, 5-HT7(h) (Homo sapiens, UniProt P34969); assay: Radioligand binding, 5-HT7 (Eurofins CEREP); conditions: 1.0 × 10^−05 M; agonist radioligand; read-out: percent inhibition of the binding of a radioactively labeled ligand
T4 construct: Eurofins CEREP
Excerpt: as §1, §2, §3, §4

[2] = test system: cocaine abuse and dependence; conditions: studies (7, 8); vs. placebo; cited from earlier work
H1(h) = target: T5, H1(h) (Homo sapiens, UniProt P35367); assay: Radioligand binding, H1 (Eurofins CEREP); conditions: 1.0 × 10^−05 M; antagonist radioligand; read-out: percent inhibition of the binding of a radioactively labeled ligand
T5 construct: Eurofins CEREP
Excerpt: as §1, §2, §3, §4

[3] = MAZ 2: mazindol 2 mg/kg i.p. 60 min before drug sessions, vehicle before preference session, day 12, mean

T3 sequence (P31645 whole entry): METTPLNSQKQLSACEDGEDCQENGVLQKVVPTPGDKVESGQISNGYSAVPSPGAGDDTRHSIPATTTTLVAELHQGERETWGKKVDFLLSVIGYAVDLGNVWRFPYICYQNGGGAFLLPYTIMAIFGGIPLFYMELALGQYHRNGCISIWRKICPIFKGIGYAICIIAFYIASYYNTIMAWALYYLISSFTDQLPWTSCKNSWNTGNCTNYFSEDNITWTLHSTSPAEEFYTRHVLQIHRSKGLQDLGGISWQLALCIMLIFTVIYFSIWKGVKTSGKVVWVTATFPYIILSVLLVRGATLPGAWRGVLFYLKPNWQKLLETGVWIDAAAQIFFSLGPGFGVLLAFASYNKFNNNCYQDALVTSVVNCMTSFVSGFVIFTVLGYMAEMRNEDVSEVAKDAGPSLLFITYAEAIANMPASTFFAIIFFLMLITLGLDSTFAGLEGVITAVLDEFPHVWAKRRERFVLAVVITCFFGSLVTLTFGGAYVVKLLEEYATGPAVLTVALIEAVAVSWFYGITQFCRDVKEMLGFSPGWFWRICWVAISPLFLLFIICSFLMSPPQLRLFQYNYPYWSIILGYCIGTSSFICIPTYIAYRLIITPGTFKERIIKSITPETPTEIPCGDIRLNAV
T5 sequence (P35367 whole entry): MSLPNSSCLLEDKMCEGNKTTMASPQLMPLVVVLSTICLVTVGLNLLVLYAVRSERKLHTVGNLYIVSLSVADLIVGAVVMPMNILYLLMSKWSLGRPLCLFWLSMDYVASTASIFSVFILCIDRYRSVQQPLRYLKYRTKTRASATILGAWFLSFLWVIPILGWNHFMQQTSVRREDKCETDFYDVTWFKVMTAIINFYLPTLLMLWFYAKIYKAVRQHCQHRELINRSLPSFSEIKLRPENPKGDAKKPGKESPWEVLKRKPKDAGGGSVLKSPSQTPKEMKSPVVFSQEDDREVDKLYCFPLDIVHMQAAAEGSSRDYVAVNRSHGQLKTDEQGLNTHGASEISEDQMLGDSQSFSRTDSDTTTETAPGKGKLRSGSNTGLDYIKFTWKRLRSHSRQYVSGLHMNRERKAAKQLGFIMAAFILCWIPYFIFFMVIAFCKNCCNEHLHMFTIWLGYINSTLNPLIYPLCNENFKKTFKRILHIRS
T2 sequence (Q01959 whole entry): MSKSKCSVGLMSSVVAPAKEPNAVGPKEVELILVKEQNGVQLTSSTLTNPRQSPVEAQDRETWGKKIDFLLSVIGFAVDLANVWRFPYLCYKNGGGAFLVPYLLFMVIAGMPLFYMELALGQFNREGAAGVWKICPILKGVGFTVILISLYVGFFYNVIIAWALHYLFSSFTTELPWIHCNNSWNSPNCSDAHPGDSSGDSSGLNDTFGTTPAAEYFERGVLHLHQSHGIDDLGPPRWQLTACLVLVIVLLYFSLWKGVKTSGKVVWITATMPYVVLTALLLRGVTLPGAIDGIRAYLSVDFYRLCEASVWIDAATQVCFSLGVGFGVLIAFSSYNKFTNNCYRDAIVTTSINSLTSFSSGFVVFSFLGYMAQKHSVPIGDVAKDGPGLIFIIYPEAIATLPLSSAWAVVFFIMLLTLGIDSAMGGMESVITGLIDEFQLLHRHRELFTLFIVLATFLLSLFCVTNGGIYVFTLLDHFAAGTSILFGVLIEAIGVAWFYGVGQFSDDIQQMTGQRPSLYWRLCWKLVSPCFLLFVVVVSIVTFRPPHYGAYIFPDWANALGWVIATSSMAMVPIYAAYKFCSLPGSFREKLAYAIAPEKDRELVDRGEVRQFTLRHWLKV
T1 sequence (P34975 whole entry): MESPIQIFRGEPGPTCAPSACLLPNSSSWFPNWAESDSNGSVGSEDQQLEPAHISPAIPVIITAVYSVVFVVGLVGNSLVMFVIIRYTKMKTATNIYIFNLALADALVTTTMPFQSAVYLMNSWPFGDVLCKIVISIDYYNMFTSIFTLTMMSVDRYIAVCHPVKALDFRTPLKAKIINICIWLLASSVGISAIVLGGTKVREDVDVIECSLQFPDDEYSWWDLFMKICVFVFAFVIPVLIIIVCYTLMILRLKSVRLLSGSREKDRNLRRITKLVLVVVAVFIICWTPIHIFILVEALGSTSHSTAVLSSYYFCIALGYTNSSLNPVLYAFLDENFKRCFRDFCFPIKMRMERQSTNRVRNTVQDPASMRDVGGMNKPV
T4 sequence (P34969 whole entry): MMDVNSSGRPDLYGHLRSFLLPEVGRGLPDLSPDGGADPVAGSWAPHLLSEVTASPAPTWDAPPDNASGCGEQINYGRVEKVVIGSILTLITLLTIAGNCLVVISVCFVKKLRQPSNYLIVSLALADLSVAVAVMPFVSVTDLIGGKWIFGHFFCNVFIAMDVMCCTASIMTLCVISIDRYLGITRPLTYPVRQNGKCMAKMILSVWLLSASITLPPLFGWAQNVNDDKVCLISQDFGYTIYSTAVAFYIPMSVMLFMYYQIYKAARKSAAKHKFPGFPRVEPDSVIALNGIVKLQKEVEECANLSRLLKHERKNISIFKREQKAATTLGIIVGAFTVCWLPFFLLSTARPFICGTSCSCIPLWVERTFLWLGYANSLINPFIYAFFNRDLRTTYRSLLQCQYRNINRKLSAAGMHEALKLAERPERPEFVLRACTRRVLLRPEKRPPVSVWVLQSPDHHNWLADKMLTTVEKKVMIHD

## OC1(c2ccc(Cl)cc2)c2ccccc2C2=NCCN21 (stereo not drawn) [Mazindol, 5-(4-chlorophenyl)-2,5-dihydro-3 H-imadazo[2,1-a]isoindol-5-ol]
[1]
  time to steady-state concentrations: 30 to 55 h
K (KOP)
  affinity for κ-opioid receptors: modest affinity
Dopamine transporter(h)
  inhibition at 10 µM: 98.2%
5-HT transporter(h)
  inhibition at 10 µM: 99.5%
C57BL/6J mice; [3]
  Distance travelled in the drug-paired compartment: 9013.0 cm
  Distance travelled in the two compartments (Drug + Vehicle): 14858.2 cm
  Distance travelled in the vehicle-paired compartment: 5845.2 cm
  Distance travelled, drug-paired minus vehicle-paired compartment: 3167.8 cm
  Time spent in the drug-paired compartment: 1077.3 s
  Time spent in the vehicle-paired compartment: 722.7 s
  Time spent, drug-paired minus vehicle-paired compartment: 354.6 s
C57BL/6J mice; mazindol 2 mg/kg i.p. before drug sessions
  place preference induced by the drug: induced a place preference
5-HT7(h)
  inhibition at 10 µM: 52.9%
[2]
  efficacy in treating cocaine abuse and dependence: ineffective
H1(h)
  inhibition at 10 µM: 75.3%
